According to patent publication US20250179440A1, “METHOD FOR CULTURING CANCER ORGANOID AND METHOD FOR SCREENING TEST SUBSTANCE” (TOPPAN Holdings Inc., priority 2022, published 2025):

System: blood vessel network of the cell structure (HUVEC/NHDF)
Assay: Blood vessel network formation in the cell structure co-cultured with PDOs (anti-CD31 immunostaining)
Assay type: cell-based, human
Settings: added factor of EGM2 added singly to DMEM and EBM2; FIGS. 9 and 10
Method: The pre-culture of the patient-derived PDOs and the preparation of the cell structure were performed by the same method as in Example 1. For the co-culture of the PDOs and the cell structure, a method for top surface culture of the cell structure using single-celled PDOs was adopted. In addition, regarding the sample for which the culture was continued, the co-culture of the PDOs and the cell structure was performed by the same method as in Example 1, except that the medium was replaced using each medium at a timing of once every three or four days. Fluorescence immunostaining, image capturing, and image analysis were performed by the same methods as in Example 1. Next, in order to identify the inhibitory factors among the added factors, media obtained by adding each of the added factors of EGM2 shown in Table 7 to D-MEM and EBM2, and media obtained by excluding each of the added factors shown in Table 7 from EGM2 were prepared, and vascular network evaluation was performed. The scale bars in FIGS. 9 and 10 indicate 500 μm. […] In FIG. 10, +means that the added factor is included, and −means that the added factor is excluded.

C[C@]12CCC(=O)C=C1CC[C@@H]1[C@@H]2[C@@H](O)C[C@@]2(C)[C@H]1CC[C@]2(O)C(=O)CO [Hydrocortisone]
formation of the blood vessel network: the formation of the blood vessel network was suppressed
